Measurements as given in patent US11440913B2, “Aminoimidazopyridazines as kinase inhibitors” (BRISTOL-MYERS SQUIBB COMPANY, priority 2017, dated 2022).
Structures can show the parent of a compound that is named as a salt. Where two headings read alike, the source gives them in different places.

What was measured:
[1] = system: MLKL phosphorylation in HT29-L23 human colorectal adenocarcinoma cells; assay: MLKL Phosphorylation High-Content Assay; type: cell-based; conditions: 6 h, necroptosis induced with TNFα, SMAC mimetic and Z-VAD, read-out: pMLKL (IC50)
Summary of the method: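 HT29-L23 cells pretreated 30 min at 37 °C with compound (6.25 to 0.106 μM final), then necroptosis induced with TNFα 35 ng/mL, SMAC mimetic 700 nM and Z-VAD 140 nM for 6 h. Fixed cells immunostained for MLKL pS358 and imaged; IC50 and Ymax from 4-parameter logistic fit.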

[2] = target: His-GST-TVMV-hRIPK1(1-324) (Homo sapiens (Human), UniProt Q13546); assay: RIPK1 HTRF Binding Assay; conditions: HTRF binding, 1 h at rt; read-out: RIPK1 (IC50)
Chain of His-GST-TVMV-hRIPK1(1-324) (Q13546 1-324): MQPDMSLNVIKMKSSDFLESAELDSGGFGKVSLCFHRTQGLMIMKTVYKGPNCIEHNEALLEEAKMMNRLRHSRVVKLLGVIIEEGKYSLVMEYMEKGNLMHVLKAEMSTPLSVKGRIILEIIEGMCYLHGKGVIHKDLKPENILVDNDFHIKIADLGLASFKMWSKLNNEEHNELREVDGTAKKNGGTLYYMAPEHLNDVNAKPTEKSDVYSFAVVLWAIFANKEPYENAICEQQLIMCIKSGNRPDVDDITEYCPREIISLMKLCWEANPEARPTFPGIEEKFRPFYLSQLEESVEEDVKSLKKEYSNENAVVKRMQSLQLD
Summary of the method: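 HTRF probe-displacement binding: 1 nM His-GST-TVMV-hRIPK1(1-324) (baculovirus construct), 90.6 nM probe, 0.2 nM anti-GST-Tb in 20 mM HEPES, 10 mM MgCl2, 0.015% Brij-35, 4 mM DTT, 0.05 mg/mL BSA. Incubated 1 h at rt; FRET 520/495 nm ratio, inhibition relative to DMSO-only wells.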

Row | Compound | IC50 ([1]; Homo sapiens) | IC50 [2] | IC50 [1]
1 | CCc1ncc(-c2ccc3nc(NC(C)=O)cn3n2)cc1C(=O)NCc1cc(C(F)(F)F)ccc1F [Example 329, 5-{2-acetamidoimidazo[1,2-b]pyridazin-6-yl}-2-ethyl-N-{[2-fluoro-5-(trifluoromethyl)phenyl]methyl}pyridine-3-carboxamide] | 0.088 µM | 0.053 µM | 
2 | CC(=O)Nc1cn2nc(-c3c(F)c(F)cc(C(=O)NCc4cc(OC(F)(F)F)ccc4F)c3F)ccc2n1 [Example 368, 3-{2-acetamidoimidazo [1,2-b]pyridazin-6-yl}-2,4,5-trifluoro-N-{[2-fluoro-5-(trifluoromethoxy)phenyl]methyl} benzamide] | 0.031 µM | 0.025 µM | 
3 | COc1ncc(-c2ccc3nc(NC(C)=O)cn3n2)cc1C(=O)NCc1ncccc1OC1CCCC1 [Example 163, N-{[3-(cyclopentyloxy)pyridin-2-yl]methyl}-5-{2-acetamidoimidazo[1,2-b]pyridazin-6-yl}-2-methoxypyridine-3-carboxamide] | 0.017 µM | 0.012 µM | 
4 | [2H]C([2H])([2H])[C@@H](NC(=O)c1cnc(C)c(-c2ccc3nc(NC(C)=O)cn3n2)c1)c1cc(OC(F)(F)F)ccc1F [Example 229, 5-{2-acetamidoimidazo[1,2-b]pyridazin-6-yl}-N-[(1R)-1-[2-fluoro-5-(trifluoromethoxy)phenyl] (2,2,2-deutero)ethyl]-6-methylpyridine-3-carboxamide] | 0.436 µM | 0.134 µM | 
5 | CC(=O)Nc1cn2nc(-c3cnc(C)c(C(=O)NCc4cc(F)cc(F)c4OCC4CCC4)c3)ccc2n1 [Example 210, N-{[2-(cyclobutylmethoxy)-3,5-difluorophenyl]methyl}-5-{2-acetamidoimidazo[1,2-b]pyridazin-6-yl}-2-methylpyridine-3-carboxamide, TFA] |  | 0.003 µM | 0.005 µM
6 | CC(=O)Nc1cn2nc(-c3ccc(C)c(C(=O)N[C@H](C)c4cc(OC(F)(F)F)ccc4F)c3)ccc2n1 [Example 396, (R)-5-(2-acetamidoimidazo [1,2-b]pyridazin-6-yl)-N-(1-(2-fluoro-5-(trifluoromethoxy)phenyl)ethyl)-2-methylbenzamide] | 0.007 µM | 0.001 µM | 
7 | 5-{2-acetamidoimidazo[1,2-b]pyridazin- 6-yl}-N-{[3-fluoro-5- (trifluoromethoxy)phenyl]methyl}-2,6- dimethylpyridine-3-carboxamide, TFA [Example 79] |  | 0.038 µM | 0.046 µM
8 | COc1nc(C)c(-c2ccc3nc(NC(C)=O)cn3n2)cc1C(=O)NC(C)c1cc(C(F)(F)F)ccc1F (stereo not shown) [Example 276, 5-{2-acetamidoimidazo[1,2-b]pyridazin-6-yl}-N-{1-[2-fluoro-5-(trifluoromethyl)phenyl]ethyl}-2-methoxy-6-methylpyridine-3-carboxamide] |  | 0.028 µM | 0.039 µM
9 | COc1ncc(-c2ccc3nc(NC(C)=O)cn3n2)cc1C(=O)NCc1c(F)cc(F)cc1OCC1CC1 [Example 150, N-{[2-(cyclopropylmethoxy)-4,6-difluorophenyl]methyl}-5-{2-acetamidoimidazo[1,2-b]pyridazin-6-yl}-2-methoxypyridine-3-carboxamide] | 0.024 µM | 0.018 µM | 
10 | Cc1nc(C)c(-c2ccc3nc(NC(=O)CO)cn3n2)cc1C(=O)N[C@H](C)c1cc(C(F)(F)F)ccc1F [Example 92, N-[(1R)-1-[2-fluoro-5-(trifluoromethyl)phenyl]ethyl]-5-[2-(2-hydroxyacet-amido)imidazo[1,2-b]pyridazin-6-yl]-2,6-dimethylpyridine-3-carboxamide] | 0.127 µM | 0.048 µM | 
11 | COCC(=O)Nc1cn2nc(-c3cnc(OC)c(C(=O)NCc4ccccc4OC(F)(F)F)c3)ccc2n1 [Example 3, 2-methoxy-5-[2-(2-methoxyacetamido)imidazo[1,2-b]pyridazin-6-yl]-N-{[2-(trifluoromethoxy)phenyl]methyl}pyridine-3-carboxamide] | 0.295 µM | 0.03 µM | 
12 | 5-{2- acetamidoimidazo[1,2-b]pyridazin- 6-yl}-N-{[2-fluoro-5- (trifluoromethyl)phenyl]methyl}-2- methoxypyridine-3-carboxamide [Example 146] |  | 0.017 µM | 0.048 µM
13 | COc1ncc(-c2ccc3nc(NC(=O)C(C)(C)C#N)cn3n2)cc1C(=O)NCc1cc(OC(F)(F)F)ccc1F [Example 28, 5-[2-(2-cyano-2,2-dimethylacetamido)imidazo[1,2-b]pyridazin-6-yl]-N-{[2-fluoro-5-(trifluoromethoxy)phenyl]methyl}-2-methoxypyridine-3-carboxamide] | 0.248 µM | 0.285 µM | 
14 | CC(=O)Nc1cn2nc(-c3cnc(Cl)c(C(=O)NC(C)c4ccccc4OC(F)(F)F)c3)ccc2n1 (stereo not shown) [Example 271, 2-chloro-5-{2-acetamidoimidazo[1,2-b]pyridazin-6-yl}-N-{1-[2-(trifluoromethoxy)phenyl]ethyl}pyridine-3-carboxamide] |  | 0.049 µM | 0.129 µM
15 | CC(=O)Nc1cn2nc(-c3cncc(C(=O)NCc4cc(F)ccc4OC4CCCC4)c3)ccc2n1 [Example 242, N-{[2-(cyclopentyloxy)-5-fluorophenyl]methyl}-5-{2-acetamidoimidazo[1,2-b]pyridazin-6-yl}pyridine-3-carboxamide] | 0.011 µM | 0.004 µM | 
16 | CC(=O)Nc1cn2nc(-c3cnc(C)c(C(=O)NC(C)c4cc(C(F)(F)F)ccc4F)c3)ccc2n1 (stereo not shown) [Example 204, 5-{2-acetamidoimidazo[1,2-b]pyridazin-6-yl}-N-{1-[2-fluoro-5-(trifluoromethyl)phenyl]ethyl}-2-methylpyridine-3-carboxamide] | 0.083 µM | 0.122 µM | 
17 | [2H]C([2H])([2H])Oc1cc(C)c(-c2ccc3nc(NC(C)=O)cn3n2)cc1C(=O)NCc1cc(OC(F)(F)F)ccc1F [Example 417] | 0.009 µM | 0.004 µM | 
18 | [2H]C([2H])([2H])[C@H](NC(=O)c1cc(-c2ccc3nc(NC(C)=O)cn3n2)cnc1C)c1cc(C(F)(F)F)ccc1F [Example 196, 5-{2-acetamidoimidazo[1,2-b]pyridazin-6-yl}-N-[(1S)-1-[2-fluoro-5-(trifluoromethyl)phenyl](2,2,2-deutero)ethyl]-2-methylpyridine-3-carboxamide] | 0.005 µM | 0.045 µM | 
19 | CC(=O)Nc1cn2nc(-c3cncc(C(=O)NCc4cc(OC(F)(F)F)ccc4F)c3)ccc2n1 [Example 237, 5-{2-acetamidoimidazo[1,2-b]pyridazin-6-yl}-N-{[2-fluoro-5-(trifluoromethoxy)phenyl]methyl} pyridine-3-carboxamide] | 0.077 µM | 0.045 µM | 
20 | CC(=O)Nc1cn2nc(-c3cc(F)c(C)c(C(=O)NCc4ccccc4Oc4ccccc4)c3)ccc2n1 [Example 364, 5-{2-acetamidoimidazo [1,2-b]pyridazin-6-yl}-3-fluoro-2-methyl-N-[(2-phenoxyphenyl)methyl] benzamide] | 0.007 µM | 0.007 µM | 
21 | [2H]C([2H])(NC(=O)c1cc(-c2ccc3nc(NC(C)=O)cn3n2)c(C)nc1C)c1cc(C(F)(F)F)ccc1F [Example 75, 5-{2-acetamidoimidazo[1,2-b]pyridazin-6-yl}-N-{[2-fluoro-5-(trifluoromethyl)phenyl](deutero)methyl}-2,6-dimethylpyridine-3-carboxamide] | 0.032 µM | 0.011 µM | 
22 | COc1nc(C)c(-c2ccc3nc(NC(C)=O)cn3n2)cc1C(=O)NCc1ccc(F)c(F)c1OCC1CC1 [Example 286, N-{[2-(cyclopropylmethoxy)-3,4-difluorophenyl]methyl}-5-{2-acelamidoimidazo[1,2-b]pyridazin-6-yl}-2-methoxy-6-methylpyridine-3-carboxamide] |  | 0.009 µM | 0.019 µM
23 | COc1ncc(-c2ccc3nc(NC(C)=O)cn3n2)cc1C(=O)NCc1ccc(F)cc1OC(F)(F)F [Example 120, 5-{2-acetamidoimidazo[1,2-b]pyridazin-6-yl}-N-{[4-fluoro-2-(trifluoromethoxy)phenyl]methyl}-2-methoxypyridine-3-carboxamide] | 0.383 µM | 0.17 µM | 
24 | [2H]C([2H])([2H])Oc1nc(C)c(-c2ccc3nc(NC(C)=O)cn3n2)cc1C(=O)NCc1c(F)cccc1OCC(F)(F)F [Example 173, 5-{2-acetemidoimidazo[1,2-b]pyridazin-6-yl}-N-{[2-fluoro-6-(2,2,2-trifluoroethoxy)phenyl]methyl}-2-(deutero)methoxy-6-methylpyridine-3-carboxamide] | 0.002 µM | 0.003 µM | 
25 | CC(=O)Nc1cn2nc(-c3cnc(C)c(C(=O)NCc4c(F)cccc4OCC4CC4)c3)ccc2n1 [Example 226, N-{[2-(cyclopropylmethoxy)-6-fluorophenyl]methyl}-5-{2-acetamidoimidazo[1,2-b]pyridazin-6-yl}-2-methylpyridine-3-carboxamide] | 0.003 µM | 0.006 µM | 
26 | [2H]C([2H])(NC(=O)c1cc(-c2ccc3nc(NC(C)=O)cn3n2)c(C)nc1C)c1cccc(C(F)(F)F)c1 [Example 74, 5-{2-acetamidoimidazo[1,2-b]pyridazin-6-yl}-2,6-dimethyl-N-{[3-(trifluoro-methyl)phenyl](deutero)methyl}pyridine-3-carboxamide, TFA] | 0.353 µM | 0.063 µM | 
